Experimental data from publication PMC9525273 (Nature Communications, 2022).
Several values for one entry are separate records, joined by “and”; a condition that tells them apart may be missing. Identical values can stand only once. Entries after “also recorded” stand apart in the source; their conditions may differ. Like-named read-outs stand apart in the source and are kept apart here.

Key:
Type in all cases: cell-based, Plasmodium falciparum
Dd2-Polδ parasites = experiment: P. falciparum proliferation assay (72 h, fluorescent DNA-intercalating dye)
Description: (§1) For experiments with all other parasites, the effects of compounds of interest on parasite proliferation was measured in 96-well plates containing serial dilutions of the compounds in culture medium, with a fluorescent DNA-intercalating dye used to detect surviving parasites. The assays were initiated with erythrocytes infected with predominantly ring-stage parasites, and the starting parasitaemia and haematocrit were both 1%.

[1] = test system: Dd2-Polδ-PfATP4^G358S parasites; experiment: as above; details: for IC50: Dd2-Polδ-PfATP4G358S parasites
Description: as §1

[2] = test system: Dd2-PfATP4^T418N,P990R parasites; experiment: as above; details: Dd2-PfATP4T418N,P990R parasites; individual experiments; read-out: IC50 values
Description: as §1

Dd2 parasites = experiment: as above; details: read-out: IC50 values; Dd2 parasites; individual experiments
Description: as §1

[3] = test system: HCR1 parasites (highly cipargamin-resistant clone 1); experiment: as above; details: Plasmodium falciparum, HCR1 parasites; individual experiments; read-out: IC50 values
Description: as §1

[4] = test system: HCR2 parasites (highly cipargamin-resistant clone 2); experiment: as above; details: HCR2 parasites, individual experiments, read-out: IC50 values
Description: as §1

[5] = test system: parasite lines with a G358S mutation in PfATP4; experiment: P. falciparum proliferation assays, statements on all lines with the G358S mutation; details: G358S lines vs PfATP4 wild-type controls
Description: (§2) Two types of parasite proliferation assays were employed in this study, with both yielding highly consistent results. For the NF54-based lines and Dd2-B2-PfATP4^G358S and its parent, assays were initiated with cultures containing predominantly ring-stage parasites with a parasitaemia of 0.3% and a haematocrit of 1%. All assays using NF54 were performed in culture media containing 10% O + human serum. The duration of the assays was 72 h and the concentration of DMSO was <0.5% (v/v). Serial dilutions of the test compounds were performed using a Tecan D300e digital dispenser, with parasite cultures added manually. Parasite survival was assessed by flow cytometry on an Intellicyt iQue3 (Essen Bioscience), with 1× SYBR Green I (Invitrogen) and 200 nM MitoTracker Deep Red FM (Invitrogen) used to stain the nucleus and the mitochondria in live parasites, respectively. The gating strategy used to quantify parasite survival, performed using FlowJo version 10 (FlowJo LLC.), is illustrated in Supplementary Fig. 9. IC50 and IC90 values were calculated by linear interpolation of the dose-response data.
as §1, with “1%. […] Fluorescence was measured using a FLUOstar OPTIMA plate reader (BMG LABTECH), with OPTIMA version 2.20R2 and MARS Data Analysis Software version 3.01 R2 (BMG LABTECH).” for “1%.”

NF54^WT parasites = experiment: microbe, parasite or virus in culture
Description: as §2, with “For” for “Two types of parasite proliferation assays were employed in this study, with both yielding highly consistent results. For”

NF54^CTL parasites = experiment: P. falciparum proliferation assay (72 h, flow cytometry, SYBR Green I/MitoTracker)
Description: as §2, with “For” for “Two types of parasite proliferation assays were employed in this study, with both yielding highly consistent results. For”

NF54^G358S-1 parasites = experiment: as above; details: for FC (IC50) / FC (IC90): NF54G358S-1 compared to NF54WT
Description: as §2, with “For” for “Two types of parasite proliferation assays were employed in this study, with both yielding highly consistent results. For”

NF54^G358S-2 parasites = experiment: as above
Description: as §2, with “For” for “Two types of parasite proliferation assays were employed in this study, with both yielding highly consistent results. For”

[6] = Dd2-Polδ parasites, individual experiments, read-out: IC50 values
[7] = individual experiments, read-out: IC50 values
[8] = NF54WT parasites, individual experiments, read-out: IC50 values
[9] = NF54WT parasites, individual experiments, read-out: IC90 values
[10] = Plasmodium falciparum, NF54, NF54WT parasites, individual experiments, read-out: IC90 values
[11] = Plasmodium falciparum, NF54, NF54WT parasites, mean of the experiments, read-out: IC50 values, MEAN
[12] = Plasmodium falciparum, NF54, NF54WT parasites, mean of the experiments, read-out: IC90 values, MEAN
[13] = NF54CTL parasites, individual experiments, read-out: IC50 values
[14] = NF54CTL parasites, individual experiments, read-out: IC90 values
[15] = Plasmodium falciparum, NF54, NF54CTL parasites, individual experiments, read-out: IC90 values
[16] = Plasmodium falciparum, NF54, NF54CTL parasites, mean of the experiments, read-out: IC50 values, MEAN
[17] = Plasmodium falciparum, NF54, NF54CTL parasites, mean of the experiments, read-out: IC90 values, MEAN
[18] = NF54G358S-1 parasites, individual experiments, read-out: IC50 values
[19] = NF54G358S-1 parasites, individual experiments, read-out: IC90 values
[20] = NF54G358S-2 parasites, individual experiments, read-out: IC50 values
[21] = NF54G358S-2 parasites, individual experiments, read-out: IC90 values

Row | SMILES | IC50 (Dd2-Polδ parasites; [6]) | IC50 [1, 7] | effect of the G358S mutation in PfATP4 on parasite susceptibility [5] | IC50 (NF54^WT parasites; [8]) | IC90 (NF54^WT parasites; [9]) | FC (IC50) (NF54^WT parasites; NF54WT, reference line) | FC (IC90) (NF54^WT parasites; NF54WT, reference line) | IC90 (NF54^WT parasites; [10]) | IC50 (NF54^WT parasites; [11]) | IC90 (NF54^WT parasites; [12]) | FC (IC50) (NF54^CTL parasites; NF54CTL compared to NF54WT) | FC (IC90) (NF54^CTL parasites; NF54CTL compared to NF54WT) | IC50 (NF54^CTL parasites; [13]) | IC90 (NF54^CTL parasites; [14]) | IC90 (NF54^CTL parasites; [15]) | IC50 (NF54^CTL parasites; [16]) | IC90 (NF54^CTL parasites; [17]) | FC (IC50) (NF54^G358S-1 parasites) | FC (IC90) (NF54^G358S-1 parasites) | IC50 (NF54^G358S-1 parasites; [18]) | also measured
1 | CCN(CC)CCCC(C)Nc1ccnc2cc(Cl)ccc12 (stereo not shown) [Chloroquine] | 172 nM and 316 nM | 161 nM and 262 nM and 227 nM | – | – | – | – | – | – | – | – | – | – | – | – | – | – | – | – | – | – | IC50 (Dd2-Polδ parasites; Plasmodium falciparum, DD2, Dd2-Polδ parasites, mean of the experiments, read-out: IC50 values, MEAN): 185 nM; IC50 (Dd2-Polδ parasites; Plasmodium falciparum, DD2, SET-2, read-out: Mean IC50 value ± SEM for growth inhibition, Dd2-Polδ, Supplementary Table 1, Set 2): 185 nM; IC50 [2]: 165 nM; IC50 (Dd2 parasites): 92 nM and 187 nM; IC50 [3]: 92 nM; IC50 [4]: 229 nM; IC50 ([4]; Plasmodium falciparum): 159 nM
2 | CC1(C)c2nc(-c3ccc(F)cc3)c(Nc3ccc(F)cc3)n2CCN1C(=O)CN [KAF156] | – | – | no impact; also recorded: no effect | 6.9 nM and 7.1 nM and 5.4 nM | 14.7 nM and 12.9 nM and 12.4 nM and 9.88 nM and 13.6 nM and 9.68 nM | 1.0 fold | 1.0 fold | 17.6 nM | 6.7 nM | 13 nM | 0.7 fold | 0.8 fold | 5.1 nM and 4.4 nM and 4.5 nM and 5.9 nM and 4.7 nM | 13.8 nM and 9.19 nM and 9.36 nM and 8.54 nM and 9.44 nM and 9.66 nM | 12.6 nM | 4.9 nM | 10.4 nM | – | – | – | IC50 (NF54^WT parasites; Plasmodium falciparum, NF54, NF54WT parasites, individual experiments, read-out: IC50 values): 7.2 nM; IC50 (NF54^WT parasites; Plasmodium falciparum, NF54, NF54WT, 10% human serum, read-out: IC50 ± SEM): 6.7 ± 0.2 nM; IC50 (NF54^CTL parasites; Plasmodium falciparum, NF54, NF54CTL parasites, individual experiments, read-out: IC50 values): 5.5 nM
3 | CCCCN(CCCC)CC(O)c1cc(Cl)cc2c1-c1ccc(Cl)cc1/C2=C/c1ccc(Cl)cc1 (stereo not shown) [Lumefantrine] | – | – | no effect | 57 nM and 33.7 nM and 89.8 nM and 48.6 nM | 102 nM and 140 nM and 109 nM | 1.0 fold | 1.0 fold | 142 nM | 57.3 nM | 123 nM | 0.8 fold | 1.0 fold | 38.6 nM and 28.4 nM and 70.8 nM and 45.8 nM | 98.1 nM and 138 nM and 120 nM | 138 nM | 45.9 nM | 123 nM | 0.7 fold | 1.1 fold | 34 nM and 51.7 nM and 36.1 nM | IC90 (NF54^G358S-1 parasites; [19]): 115 nM and 130 nM and 120 nM; IC50 (NF54^G358S-1 parasites; Plasmodium falciparum, NF54, NF54G358S-1 parasites, individual experiments, read-out: IC50 values): 48.2 nM; IC90 (NF54^G358S-1 parasites; Plasmodium falciparum, NF54, NF54G358S-1 parasites, individual experiments, read-out: IC90 values): 182 nM; IC50 (NF54^G358S-1 parasites; Plasmodium falciparum, NF54, NF54G358S-1 parasites, mean of the experiments, read-out: IC50 values, MEAN): 42.5 nM; IC90 (NF54^G358S-1 parasites; Plasmodium falciparum, NF54, NF54G358S-1 parasites, mean of the experiments, read-out: IC90 values, MEAN): 137 nM; FC (IC50) (NF54^G358S-2 parasites; NF54G358S-2 compared to NF54WT): 0.7 fold; FC (IC90) (NF54^G358S-2 parasites; NF54G358S-2 compared to NF54WT): 1.0 fold; IC50 (NF54^G358S-2 parasites; [20]): 31.8 nM and 46.1 nM and 31.3 nM; IC90 (NF54^G358S-2 parasites; [21]): 82.7 nM and 129 nM and 123 nM; IC50 (NF54^G358S-2 parasites; Plasmodium falciparum, NF54, NF54G358S-2 parasites, individual experiments, read-out: IC50 values): 55.1 nM; IC90 (NF54^G358S-2 parasites; Plasmodium falciparum, NF54, NF54G358S-2 parasites, individual experiments, read-out: IC90 values): 152 nM; IC50 (NF54^G358S-2 parasites; Plasmodium falciparum, NF54, NF54G358S-2 parasites, mean of the experiments, read-out: IC50 values, MEAN): 41.1 nM; IC90 (NF54^G358S-2 parasites; Plasmodium falciparum, NF54, NF54G358S-2 parasites, mean of the experiments, read-out: IC90 values, MEAN): 122 nM
4 | CCOC(=O)C1=CN(C)C=C(C(=O)OCC)C1c1cc(Br)c(OCC)c(OC)c1 [MMV006656] | 435 nM and 243 nM and 394 nM and 305 nM | 1560 nM and 1990 nM and 1300 nM and 2350 nM | – | – | – | – | – | – | – | – | – | – | – | – | – | – | – | – | – | – | IC50 (Dd2-Polδ parasites; Dd2-Polδ parasites, mean of the experiments, read-out: IC50 values, MEAN): 344 nM; IC50 ([1]; mean of the experiments, read-out: IC50 values, MEAN): 1800 nM; IC50 fold higher than that of Dd2-Polδ parent ([1]; Dd2-Polδ-PfATP4G358S vs Dd2-Polδ, mean ± SEM): 5.7 ± 1.3 fold
5 | CCNCc1cc(Nc2ccnc3cc(Cl)ccc23)ccc1O [Monodesethyl‐amodiaquine] | – | – | no effect | 10.5 nM | 7.38 nM and 7.32 nM and 7.45 nM and 14.6 nM | 1.0 fold | 1.0 fold | – | – | – | 1.0 fold | 1.5 fold | 6.5 nM and 6.8 nM and 7.4 nM and 7.2 nM | – | – | – | – | 1.1 fold | 1.4 fold | 5.6 nM and 7.6 nM and 8.1 nM and 9.2 nM | IC50 (NF54^WT parasites; NF54WT parasites, mean of the experiments, read-out: IC50 values, MEAN): 6.9 nM; IC90 (NF54^WT parasites; NF54WT parasites, mean of the experiments, read-out: IC90 values, MEAN): 9.2 nM; FC (Mean IC90/IC50) (NF54^WT parasites; NF54WT, reference line): 1.0 fold; IC50 (NF54^WT parasites; read-out: IC50 values): 5.7 nM; FC (Mean IC90/IC50) (NF54^CTL parasites; NF54CTL compared to NF54WT): 1.5 fold; IC50 (NF54^CTL parasites; NF54CTL parasites, mean of the experiments, read-out: IC50 values, MEAN): 7 nM; IC50 (NF54^G358S-1 parasites; NF54G358S-1, 10% human serum, read-out: IC50 ± SEM): 7.6 ± 0.8 nM; IC90 (NF54^G358S-1 parasites; [19]): 7.37 nM and 14 nM (2×) and 14.3 nM; IC50 (NF54^G358S-1 parasites; NF54G358S-1 parasites, mean of the experiments, read-out: IC50 values, MEAN): 7.6 nM; IC90 (NF54^G358S-1 parasites; NF54G358S-1 parasites, mean of the experiments, read-out: IC90 values, MEAN): 12.4 nM; FC (IC50) (NF54^G358S-2 parasites; NF54G358S-2 compared to NF54WT): 1.0 fold; FC (IC90) (NF54^G358S-2 parasites; NF54G358S-2 compared to NF54WT): 1.3 fold; FC (Mean IC90/IC50) (NF54^G358S-2 parasites; NF54G358S-2 compared to NF54WT): 1.3 fold; IC50 (NF54^G358S-2 parasites; [20]): 5.9 nM and 7.4 nM and 7 nM; IC90 (NF54^G358S-2 parasites; [21]): 7.97 nM and 13.8 nM and 13.5 nM; IC50 (NF54^G358S-2 parasites; NF54G358S-2 parasites, mean of the experiments, read-out: IC50 values, MEAN): 6.8 nM; IC90 (NF54^G358S-2 parasites; NF54G358S-2 parasites, mean of the experiments, read-out: IC90 values, MEAN): 12.2 nM
